A word on the IC50: it is the concentration that gives 50% inhibition.

This note sets out measurements from US12522602B2, “Derivatives having 2,3-dihydro-1H-indene or 2,3-dihydrobenzofuran moiety or pharmaceutically acceptable salt thereof and pharmaceutical compositions comprising the same” (YUHAN CORPORATION, priority 2019, dated 2026).

The assay has as its system GM1 production in Jurkat cells. The assay can be described thus: cells. Format: cell-based. The conditions noted are these: Homo sapiens, Jurkat, 72 h.
Regarding `COc1ccc(OC)c(-c2cc3c(cc2OC)C(NC(=O)O[C@@H]2CN4CCC2CC4)C(C)(C)C3)c1` (stereo partly drawn) [Example 344, (S)-quinuclidin-3-yl (5-(2,5-dimethoxyphenyl)-6-methoxy-2,2-dimethyl-2,3-dihydro-1H-inden-1-yl)carbamate], the half-maximal inhibitory concentration (IC50) was 51 nM.

Regarding `COc1cc(OC)cc(-c2cc3c(cc2OC)C(NC(=O)O[C@@H]2CN4CCC2CC4)C(C)(C)C3)c1` (stereo partly drawn) [Example 345, (S)-quinuclidin-3-yl (5-(3,5-dimethoxyphenyl)-6-methoxy-2,2-dimethyl-2,3-dihydro-1H-inden-1-yl)carbamate], the IC50 amounted to 45.7 nM.

The compound `COc1ccc(-c2cc3c(cc2OC)C(NC(=O)O[C@@H]2CN4CCC2CC4)C(C)(C)C3)c(Cl)c1` (stereo partly drawn) [Example 346, (S)-quinuclidin-3-yl (5-(2-chloro-4-methoxyphenyl)-6-methoxy-2,2-dimethyl-2,3-dihydro-1H-inden-1-yl)carbamate] displayed an IC50 of 38.3 nM.

Regarding `CCOc1ccc(-c2cc3c(cc2OC)C(NC(=O)O[C@@H]2CN4CCC2CC4)C(C)(C)C3)cc1F` (stereo partly drawn) [Example 347, (S)-quinuclidin-3-yl (5-(4-ethoxy-3-fluorophenyl)-6-methoxy-2,2-dimethyl-2,3-dihydro-1H-inden-1-yl)carbamate], the IC50 was 46.8 nM.

Compound `COc1cc2c(cc1-c1cc(C)c(OC(C)C)c(C)c1)CC(C)(C)C2NC(=O)O[C@@H]1CN2CCC1CC2` (stereo partly drawn) [Example 348, (S)-quinuclidin-3-yl (5-(4-isopropoxy-3,5-dimethylphenyl)-6-methoxy-2,2-dimethyl-2,3-dihydro-1H-inden-1-yl)carbamate] had a half-maximal inhibitory concentration (IC50) of 44.1 nM.

The compound `CCc1ccc(-c2cc3c(cc2F)C(NC(=O)O[C@@H]2CN4CCC2CC4)C(C)(C)C3)cc1` (stereo partly drawn) [Example 349, (S)-quinuclidin-3-yl (5-(4-ethylphenyl)-6-fluoro-2,2-dimethyl-2,3-dihydro-1H-inden-1-yl)carbamate] returned a concentration for half-maximal inhibition (IC50) of 10.3 nM.

Take `CCCc1ccc(-c2cc3c(cc2F)C(NC(=O)O[C@@H]2CN4CCC2CC4)C(C)(C)C3)cc1` (stereo partly drawn) [Example 350, (S)-quinuclidin-3-yl (6-fluoro-2,2-dimethyl-5-(4-propylphenyl)-2,3-dihydro-1H-inden-1-yl)carbamate]: it took 4.5 nM to reach half-maximal inhibition (IC50).

`CC(C)c1ccc(-c2cc3c(cc2F)C(NC(=O)O[C@@H]2CN4CCC2CC4)C(C)(C)C3)cc1` (stereo partly drawn) [Example 351, (S)-quinuclidin-3-yl (6-fluoro-5-(4-isopropylphenyl)-2,2-dimethyl-2,3-dihydro-1H-inden-1-yl)carbamate] displayed a 50% inhibitory concentration (IC50) of 7.4 nM.

The compound `CC(C)Cc1ccc(-c2cc3c(cc2F)C(NC(=O)O[C@@H]2CN4CCC2CC4)C(C)(C)C3)cc1` (stereo partly drawn) [Example 352, (S)-quinuclidin-3-yl (6-fluoro-5-(4-isobutylphenyl)-2,2-dimethyl-2,3-dihydro-1H-inden-1-yl)carbamate] had an IC50 of 5.7 nM.

For `CC(C)(C)c1ccc(-c2cc3c(cc2F)C(NC(=O)O[C@@H]2CN4CCC2CC4)C(C)(C)C3)cc1` (stereo partly drawn) [Example 353, (S)-quinuclidin-3-yl (5-(4-(tert-butyl)phenyl)-6-fluoro-2,2-dimethyl-2,3-dihydro-1H-inden-1-yl)carbamate], the midpoint of inhibition, the IC50, lay at 12.7 nM.

`CC1(C)Cc2cc(-c3ccc(C4CC4)cc3)c(F)cc2C1NC(=O)O[C@@H]1CN2CCC1CC2` (stereo partly drawn) [Example 354, (S)-quinuclidin-3-yl (5-(4-cyclopropylphenyl)-6-fluoro-2,2-dimethyl-2,3-dihydro-1H-inden-1-yl)carbamate] yielded a half-maximal inhibitory concentration (IC50) of 5.9 nM.

Compound `COc1ccc(-c2cc3c(cc2F)C(NC(=O)O[C@@H]2CN4CCC2CC4)C(C)(C)C3)cc1` (stereo partly drawn) [Example 355, (S)-quinuclidin-3-yl (6-fluoro-5-(4-methoxyphenyl)-2,2-dimethyl-2,3-dihydro-1H-inden-1-yl)carbamate] displayed an IC50 of 62.8 nM.

Compound `CCOc1ccc(-c2cc3c(cc2F)C(NC(=O)O[C@@H]2CN4CCC2CC4)C(C)(C)C3)cc1` (stereo partly drawn) [Example 356, (S)-quinuclidin-3-yl (5-(4-ethoxyphenyl)-6-fluoro-2,2-dimethyl-2,3-dihydro-1H-inden-1-yl)carbamate] registered a half-maximal inhibitory concentration (IC50) of 21.6 nM.

In turn, `CCCOc1ccc(-c2cc3c(cc2F)C(NC(=O)O[C@@H]2CN4CCC2CC4)C(C)(C)C3)cc1` (stereo partly drawn) [Example 357, (S)-quinuclidin-3-yl (6-fluoro-2,2-dimethyl-5-(4-propoxyphenyl)-2,3-dihydro-1H-inden-1-yl)carbamate] came in with an IC50 of 5.3 nM.

In turn, `CC(C)Oc1ccc(-c2cc3c(cc2F)C(NC(=O)O[C@@H]2CN4CCC2CC4)C(C)(C)C3)cc1` (stereo partly drawn) [Example 358, (S)-quinuclidin-3-yl (6-fluoro-5-(4-isopropoxyphenyl)-2,2-dimethyl-2,3-dihydro-1H-inden-1-yl)carbamate] registered a half-inhibitory concentration (IC50) of 7.7 nM.

In the case of `CC(C)Oc1ccc(-c2cc3c(cc2F)C(NC(=O)O[C@@H]2CN4CCC2CC4)C(C)(C)C3)cc1Cl` (stereo partly drawn) [Example 359, (S)-quinuclidin-3-yl (5-(3-chloro-4-isopropoxyphenyl)-6-fluoro-2,2-dimethyl-2,3-dihydro-1H-inden-1-yl)carbamate], half-maximal inhibition (IC50) was put at 33.1 nM.

Consider `COc1ccc(-c2cc3c(cc2F)C(NC(=O)O[C@@H]2CN4CCC2CC4)C(C)(C)C3)c(F)c1` (stereo partly drawn) [Example 360, (S)-quinuclidin-3-yl (6-fluoro-5-(2-fluoro-4-methoxyphenyl)-2,2-dimethyl-2,3-dihydro-1H-inden-1-yl)carbamate], for which the IC50 was determined as 39 nM.

For the compound `CCCCOc1ccc(-c2cc3c(cc2F)C(NC(=O)O[C@@H]2CN4CCC2CC4)C(C)(C)C3)cc1` (stereo partly drawn) [Example 361, (S)-quinuclidin-3-yl (5-(4-butoxyphenyl)-6-fluoro-2,2-dimethyl-2,3-dihydro-1H-inden-1-yl)carbamate], the IC50 was determined as 2.1 nM.

Consider `CC(C)COc1ccc(-c2cc3c(cc2F)C(NC(=O)O[C@@H]2CN4CCC2CC4)C(C)(C)C3)cc1` (stereo partly drawn) [Example 362, (S)-quinuclidin-3-yl (6-fluoro-5-(4-isobutoxyphenyl)-2,2-dimethyl-2,3-dihydro-1H-inden-1-yl)carbamate], for which the IC50 is 2.5 nM.

With `CC1(C)Cc2cc(-c3ccc(OCC4CC4)nc3)c(F)cc2C1NC(=O)O[C@@H]1CN2CCC1CC2` (stereo partly drawn) [Example 363, (S)-quinuclidin-3-yl (5-(6-(cyclopropylmethoxy)pyridin-3-yl)-6-fluoro-2,2-dimethyl-2,3-dihydro-1H-inden-1-yl)carbamate], 8.7 nM corresponded to half-maximal inhibition (IC50).

In the case of `COc1ccc(Cl)cc1-c1cc2c(cc1F)C(NC(=O)O[C@@H]1CN3CCC1CC3)C(C)(C)C2` (stereo partly drawn) [Example 364, (S)-quinuclidin-3-yl (5-(5-chloro-2-methoxyphenyl)-6-fluoro-2,2-dimethyl-2,3-dihydro-1H-inden-1-yl)carbamate], the IC50 worked out at 17.2 nM.

As for `CCCCc1ccc(-c2cc3c(cc2F)C(NC(=O)O[C@@H]2CN4CCC2CC4)C(C)(C)C3)cc1` (stereo partly drawn) [Example 365, (S)-quinuclidin-3-yl (5-(4-butylphenyl)-6-fluoro-2,2-dimethyl-2,3-dihydro-1H-inden-1-yl)carbamate], inhibition was half-maximal at 2.4 nM (IC50).

In the case of `COc1c(C)cc(-c2cc3c(cc2F)C(NC(=O)O[C@@H]2CN4CCC2CC4)C(C)(C)C3)cc1C` (stereo partly drawn) [Example 366, (S)-quinuclidin-3-yl (6-fluoro-5-(4-methoxy-3,5-dimethylphenyl)-2,2-dimethyl-2,3-dihydro-1H-inden-1-yl)carbamate], 79.4 nM corresponded to half-maximal inhibition (IC50).

`CCOc1c(C)cc(-c2cc3c(cc2F)C(NC(=O)O[C@@H]2CN4CCC2CC4)C(C)(C)C3)cc1C` (stereo partly drawn) [Example 367, (S)-quinuclidin-3-yl (5-(4-ethoxy-3,5-dimethylphenyl)-6-fluoro-2,2-dimethyl-2,3-dihydro-1H-inden-1-yl)carbamate]: the IC50 amounted to 68.2 nM.

As for `CCCCOc1c(C)cc(-c2cc3c(cc2F)C(NC(=O)O[C@@H]2CN4CCC2CC4)C(C)(C)C3)cc1C` (stereo partly drawn) [Example 368, (S)-quinuclidin-3-yl (5-(4-butoxy-3,5-dimethylphenyl)-6-fluoro-2,2-dimethyl-2,3-dihydro-1H-inden-1-yl)carbamate], the IC50 stood at 22.9 nM.

Take `COc1cc(-c2cc3c(cc2F)C(NC(=O)O[C@@H]2CN4CCC2CC4)C(C)(C)C3)ccn1` (stereo partly drawn) [Example 369, (S)-quinuclidin-3-yl (6-fluoro-5-(2-methoxypyridin-4-yl)-2,2-dimethyl-2,3-dihydro-1H-inden-1-yl)carbamate]: inhibition was half-maximal at 172 nM (IC50).

Compound `CC1(C)Cc2cc(-c3cccc(F)c3)c(F)cc2C1NC(=O)O[C@@H]1CN2CCC1CC2` (stereo partly drawn) [Example 370, (S)-quinuclidin-3-yl (6-fluoro-5-(3-fluorophenyl)-2,2-dimethyl-2,3-dihydro-1H-inden-1-yl)carbamate] had a concentration for half-maximal inhibition (IC50) of 39.3 nM.

Compound `CCc1cccc(-c2cc3c(cc2F)C(NC(=O)O[C@@H]2CN4CCC2CC4)C(C)(C)C3)c1` (stereo partly drawn) [Example 371, (S)-quinuclidin-3-yl (5-(3-ethylphenyl)-6-fluoro-2,2-dimethyl-2,3-dihydro-1H-inden-1-yl)carbamate] came in with a concentration for half-maximal inhibition (IC50) of 24.8 nM.

As for `CC(C)Cc1cccc(-c2cc3c(cc2F)C(NC(=O)O[C@@H]2CN4CCC2CC4)C(C)(C)C3)c1` (stereo partly drawn) [Example 372, (S)-quinuclidin-3-yl (6-fluoro-5-(3-isobutylphenyl)-2,2-dimethyl-2,3-dihydro-1H-inden-1-yl)carbamate], the IC50 was found to be 46.2 nM.

In turn, `CC(C)c1cccc(-c2cc3c(cc2F)C(NC(=O)O[C@@H]2CN4CCC2CC4)C(C)(C)C3)c1` (stereo partly drawn) [Example 373, (S)-quinuclidin-3-yl (6-fluoro-5-(3-isopropylphenyl)-2,2-dimethyl-2,3-dihydro-1H-inden-1-yl)carbamate] returned an IC50 of 31.2 nM.

Consider `CC(C)(C)c1cccc(-c2cc3c(cc2F)C(NC(=O)O[C@@H]2CN4CCC2CC4)C(C)(C)C3)c1` (stereo partly drawn) [Example 374, (S)-quinuclidin-3-yl (5-(3-(tert-butyl)phenyl)-6-fluoro-2,2-dimethyl-2,3-dihydro-1H-inden-1-yl)carbamate], for which the IC50 was 26.5 nM.

With `COc1cccc(-c2cc3c(cc2F)C(NC(=O)O[C@@H]2CN4CCC2CC4)C(C)(C)C3)c1` (stereo partly drawn) [Example 375, (S)-quinuclidin-3-yl (6-fluoro-5-(3-methoxyphenyl)-2,2-dimethyl-2,3-dihydro-1H-inden-1-yl)carbamate], the half-inhibitory concentration (IC50) came out at 23 nM.
